Patent US20240287172A1, “PROTEIN BINDERS TO IRHOM2 EPITOPES” (SCIRHOM GMBH, priority 2019, published 2024)

Tests used:
[1] = test system: PMA-induced release of endogenous HB-EGF from human THP-1 monocytic cells; assay: ELISA-based HB-EGF release assay, PMA-induced, THP-1 cells; assay type: cell-based; conditions: PMA 25 ng/ml, 6 hours, murine (m) and chimeric (ch) antibodies and IgG at 3 μg/ml, Batimastat at 10 μM
Method: In brief, on day 1, Nunc black MaxiSorp® 96-well plates (Thermo Fisher Scientific, USA) were coated for 7 hours with 100 μl per well of rat anti-human HB-EGF capture antibody (provided as part of the DuoSet ELISA kit) at 2 μg/ml TBS at room temperature. Capture antibody solution was removed and MaxiSorp® plates were blocked with 300 μl per well of TBS, 1% BSA at room temperature for 3 hours. […]
Following another round of 4 times washing with 350 μl TBS-T (Carl Roth, Germany) per well on a 96-head plate washer (Tecan Group, Switzerland) and careful removal of all buffer traces after the fourth cycle, 100 μl AttoPhos substrate solution (Promega, USA) per well was added for incubation in the dark at room temperature for 1 hour. Using an infinite M1000 (Tecan Group, Switzerland) microplate reader, the fluorescence of each well was collected at an excitation wavelength of 435 nm and an emission wavelength of 555 nm.

[2] = test system: PMA-induced release of endogenous IL-6R from PBMCs from patients suffering from rheumatoid arthritis; assay: ELISA-based IL-6R release assay, PMA-induced, PBMCs from RA-patients; assay type: cell-based; conditions: Homo sapiens, PBMC; PMA 25 ng/ml, 24 hours; chimeric antibodies (CHO) and IgG at 1 μg/ml; Batimastat at 10 μM
Method: In brief, on day 1, Nunc black MaxiSorp® 96-well plates (Thermo Fisher Scientific, USA) were coated overnight with 100 μl per well of mouse anti-human IL-6R capture antibody (provided as part of the DuoSet ELISA kit) at 4 μg/ml TBS at 4° C. Meanwhile, 40,000 PBMC from patients suffering from rheumatoid arthritis (STEMCELL Technologies, Canada) cells in 80 μl of normal growth medium were seeded in each well of Greiner CELLSTAR V-bottom 96-well plates (Thermo Fisher Scientific, USA) and pre-incubated with 20 μl per well of standard growth medium supplemented with Batimastat (BB94, Abcam, UK) at 50 μM as positive control (for a final concentration of 10 μM in the resulting 100 μl sample volume), mouse IgG antibody (Thermo Fisher Scientific, USA) at 5 μg/ml as isotype control (for a final concentration of 1 μg/ml in the resulting 100 μl sample volume) or antibodies of the invention at 5 μg/ml (for a final concentration of 1 μg/ml in the resulting 100 μl sample volume) at 37° C., 5% CO2 for 30 minutes. In case of stimulation controls, 20 μl of standard growth medium without test articles were added. […] Using an infinite M1000 (Tecan Group, Switzerland) microplate reader, the fluorescence of each well was collected at an excitation wavelength of 435 nm and an emission wavelength of 555 nm.

## CNC(=O)[C@H](Cc1ccccc1)NC(=O)[C@H](CC(C)C)[C@H](CSc1cccs1)C(=O)NO [Batimastat]
[1]
  inhibition at 10 µM: 98.9%
[2]
  inhibition at 10 µM: 104%
